The subject of one data set is Gordonia sp. Kind of data set: Growth inhibition of Gordonia sp. KMC005 after 18 to 36 hrs by agar diffusion method.
The subject of the next data set is Streptomyces tendae. As to the kind of experiment: Growth inhibition of Streptomyces tendae KMC006 after 18 to 36 hrs by agar diffusion method. It counts as organism-based. The following applies: in vivo.
A further data set concerns Micrococcus luteus. As to the kind of experiment: Antibacterial activity against Micrococcus luteus KCCM 11548 assessed as zone of inhibition at 10 microg/disk after 18 to 36 hrs by agar diffusion method. The format is functional. To be noted: read-out: DIZ.
A further data set deals with Enterococcus hirae. As to the kind of experiment: Antibacterial activity against Enterococcus hirae KCCM 11768 assessed as zone of inhibition at 10 microg/disk after 18 to 36 hrs by agar diffusion method. To be noted: read-out: DIZ. It counts as functional.

On to `CC(/C=C/C=C/C=C/C=C/C(O)=C1\C(=O)[C@H](CCC(=O)O)N(C)C1=O)=C\[C@@H](C)[C@@H](O[C@H]1C[C@H](O)[C@H](O)[C@@H](C)O1)C(C)C`, for which the Activity entry in the data set on Gordonia sp. and in the data set on Streptomyces tendae was “Non-Toxic” throughout.
For the molecule `CC(/C=C/C=C/C=C/C=C/C(=O)O)=C\[C@@H](C)[C@@H](O[C@H]1C[C@H](O)[C@H](O)[C@@H](C)O1)C(C)C`, the Activity result with Gordonia sp. and in the data set with Streptomyces tendae was “Non-Toxic” in each case. For the same molecule, the zone of inhibition at 10 µg/disc in the data set on Micrococcus luteus came to 2.5 mm; in the data set with Enterococcus hirae, 1.5 mm.
`CC1(C)S[C@@H]2[C@H](NC(=O)[C@H](N)c3ccccc3)C(=O)N2[C@H]1C(=O)O` [AMPICILLIN]: the zone of inhibition at 10 µg/disc in the data set on Micrococcus luteus was found to be 10 mm; in the data set with Enterococcus hirae it was 8 mm.

For the origin of these results see ChEMBL document CHEMBL4130409, “Gordonic Acid, a Polyketide Glycoside Derived from Bacterial Coculture of Streptomyces and Gordonia Species” (J Nat Prod, 2017).
